Data reported in patent US11718610B2, “Compounds containing benzosultam” (MEDSHINE DISCOVERY INC., priority 2020, dated 2023).
pIC50: −log10 of the molar value.

Key:
HCT116 cells = assay: HCT116 (Kras G13D) antiproliferative activity experiment (CellTiter Glo); format: cell-based; settings: Homo sapiens, HCT-116, 72 h, cultured 3 days
Protocol: Experimental Embodiment 2: HCT116 (Kras^G13D) Antiproliferative Activity Experiment
(1) cell culture medium: 89% Mc′Coy 5A, 10% fetal bovine serum and 1% penicillin-streptomycin;
(2) culture medium and trypsin were preheated in a 37° C. water bath;
(3) the culture medium was removed in the cell culture flask and washed once with 1 mL of trypsin;
(4) 1 mL of trypsin was added to the cell culture flask, and the cell culture flask was shaken gently, and the trypsin was removed after full contact with the cell, and then the culture flask was placed into a 37° C. incubator containing 5% CO2 for about 1 minute;
(5) the cells were resuspended with 2 mL of cell culture medium, and about 0.01 mL of cell suspension was taken out for counting;
(6) the cell suspension was diluted with culture medium to a cell density required for plating of 2.5×10^4 cells per mL;
(7) 100 μL of culture medium was added to each well around the cell plate, and 80 μL of cell suspension was added to the other wells, and placed in a 37° C. incubator containing 5% CO2 for overnight culture.
(8) The required cell amount and culture medium were taken based on the new T75 culture flask for continued culture.
(1) the compound to be tested was prepared into […] solution with DMSO;
(2) 9 concentration gradients and 3-fold dilutions were performed on the compounds, that is, a double-duplicate experiment was set from 6 mmol to 2.7 μmol, and 78 μL of culture medium was added to the middle plate, and then 2 μL of gradient diluted compound per well was transferred to the middle plate according to the corresponding position, and after mixing, 20 μL per well was transferred to the cell plate, and the final concentration of the compound transferred to the cell plate was 30 μmol to 13.7 nmol. The cell plate was placed in a carbon dioxide incubator and cultured for another 3 days.
(1) CTG was added and the plate was read: 20 μL of CellTiter Glo was added to each well of the cell plate, and the cell plate was shaken in the dark for 10 min;
(2) plates were read on Victor Nivo.
The equation (Sample-Min)/(Max-Min)*100% was used to convert the original data into inhibition rate, and the IC50 value could be obtained by curve fitting with four parameters (obtained by “log (inhibitor) vs. response—variable slope” mode in GraphPad Prism).

Colo205 cells = assay: Colo205 (BRAF V600E) antiproliferative activity experiment (CellTiter-glo); format: cell-based; settings: Homo sapiens, COLO 205, 72 h, cultured 3 days
Protocol: Experimental Embodiment 4: Colo205 (BRAF^V600E) Antiproliferative Activity Experiment
Cell line COLO205 (purchased from Procell), RPMI1640 culture medium, penicillin/streptomycin antibiotics were purchased from Vicente, and fetal bovine serum was purchased from Biosera. CellTiter-glo (cell viability chemiluminescence detection reagent) reagent was purchased from Promega.
COLO205 cells were seeded in a white 96-well plate with […] of cell suspension per well containing 3000 of COLO205 cells. The cell plate was placed in a carbon dioxide incubator and cultured overnight. The compound to be tested was diluted 3-fold to the 9th concentration with a pipette, that is, diluted from […], and a double-duplicate experiment was set-up. 78 μmol of culture medium was added to the middle plate, then 2 μmol of gradient dilution compound per well was transferred to the middle plate according to the corresponding position, and 20 μmol of per well was mixed and transferred to the cell plate. The concentration of the compound transferred to the cell plate ranged from 1 μmol to 0.15 nmol. The cell plate was placed in a carbon dioxide incubator and cultured for 3 days. Another cell plate was prepared, and the signal value was read as the maximum value (max value in the following equation) on the day of administration to participate in data analysis. 25 μmol of cell viability chemiluminescence detection reagent was added to each well of the cell plate and incubated at room temperature for 10 minutes to stabilize the luminescence signal. A multi-marker analyzer reading was used. After the incubation of the cell plate added with the compound was finished, 25 μmol of cell viability chemiluminescence detection reagent was added to each well of the cell plate and incubated at room temperature for 10 minutes to stabilize the luminescence signal. A multi-marker analyzer reading was used.
The equation (Sample−Min)/(Max−Min)*100% was used to convert the original data into inhibition rate, and the IC50 value could be obtained by curve fitting with four parameters (obtained by “log (inhibitor) vs. response—variable slope” mode in GraphPad Prism).

[1] = tested on: human lung cancer Calu-6 cell subcutaneous xenograft tumor; assay: In vivo pharmacodynamic experiment, BALB/c nude mouse model of subcutaneous xenograft tumors of human lung cancer Calu-6 cells; settings: 50 mg/kg oral (PO) once a day (QD), Calu-6 xenograft in BALB/c nude mice, vs solvent control; P<0.01
Protocol: Experimental Embodiment 7: In Vivo Pharmacodynamic Experiment of the BALB/c Nude Mouse Model of Subcutaneous Xenograft Tumors of Human Lung Cancer Calu-6 Cells
Age of arrival: 6 to 8 weeks old
Cells: Calu-6 cells of human lung cancer were cultured in vitro, and 0.2 Units/mL bovine insulin, 10% fetal bovine serum were added to EMEM culture medium in a 37° C. and 5% CO2 incubator for culture. Conventional digestion with trypsin-EDTA was performed twice a week for passage. When the cell saturation was 80%-90% and the number of the cells reached the requirement, and the cells were collected, counted, and seeded.
Cell inoculation: 0.2 mL of Calu-6 cell (mixed in a ratio of 1:1 with matrix gel) was subcutaneously inoculated on the right back of each mouse, and group administration was started when the average tumor volume reached […],
Tumor diameters were measured with vernier calipers twice a week. The calculation formula of tumor volume was: V=0.5a×b^2, and a and b represent the long and short diameters of the tumor, respectively.
The tumor inhibition efficacy of the compounds was evaluated by TGI (%) or relative tumor proliferation rate T/C (%). Relative tumor proliferation rate T/C (%)=TRTV/CRTV×100% (TRTV: RTV in the treatment group; CRTV: RTV in the negative control group). The relative tumor volume (RTV) was calculated according to the results of tumor measurement, and the formula was RTV=Vt/V0, wherein V0 was the tumor volume measured at the time of group administration (i.e., D0), and Vt was the tumor volume measured at a certain measurement, and TRTV and CRTV were taken on the same day.
TGI (%), reflecting the tumor growth inhibition rate. TGI (%)=[1−(average tumor volume at the end of administration in a treatment group−average tumor volume at the beginning of administration in this treatment group)/(average tumor volume at the end of treatment in a solvent control group−average tumor volume at the beginning of treatment in this solvent control group)]×100%.
Statistical analysis was based on the data of RTV at the end of the experiment, and SPSS software was used for analysis. One-way ANOVA was used for comparison between two groups, and the variance was uneven (there was significant difference in F value), and Games-Howell method was used to test, p<0.05 was considered a significant difference.

Row | pIC50 (HCT116 cells) | pIC50 (Colo205 cells) | Compound | TGI (tumor growth inhibition rate) [1] [%]
1 | 6.98 | 7.85 | [2H]C1([2H])CC(Nc2ncc(Cl)c(-c3ccc4c(c3)S(=O)(=O)N([C@H](C)C(=O)N[C@H](CO)c3cc(F)cc(OC)c3)C4)n2)CC([2H])([2H])O1 [Compound 9] | 108
2 | 6.99 |  | COc1cc(F)cc([C@@H](CO)NC(=O)[C@@H](C)N2Cc3ccc(-c4nc(NC5CCOCC5)ncc4Cl)cc3S2(=O)=O)c1 [Compound 1] | 107
3 | 6.86 | 7.80 | COc1cc(F)cc([C@@H](CO)NC(=O)[C@@H](C)N2Cc3ccc(-c4nc(NC5CCOCC5)ncc4Br)cc3S2(=O)=O)c1 [Compound 3] | 110
4 | 6.91 | 7.80 | COc1cc(F)cc([C@@H](CO)NC(=O)[C@@H](C)N2Cc3ccc(-c4nc(N[C@H]5CCOC[C@H]5F)ncc4Cl)cc3S2(=O)=O)c1 [Compound 11] | 109
